Measured values published in paper PMC12390126, “Human Skin Permeation of Ethoxy- and Propoxypropanol Commonly Found in Water-Based Products” (Toxics, 2025).

Experiments:
[1] = In vitro static diffusion cell skin permeation (influence of water); assay type: in vitro ADME, human; conditions: static cells; 0, 25, 50 or 75% of water
From the text: Human abdominal full thickness skin was obtained as surgical waste from the Lausanne University Hospital (CHUV) and the Department of Musculoskeletal Medicine (DAL) Biobank, Switzerland, according to the Swiss ethics in the canton Vaud (CER-VD: Commission cantonal d’éthique de la recherche sur l’être humain, ethical protocol 264/12). The surgeon obtained written consent from the patients before the start of the operation. The collected skin was anonymized, and only sex and age were provided for this study. Human skin was obtained directly after the surgery and immediately dermatomed to a thickness of 800 µm (Acculan®II, B. Braun/Aesculap, Sempach, Switzerland) to account for any potential storage effects on its in vitro mass balance. The experiments were run with triplicate skin samples (n = 3) from three different donors giving a total of nine samples for each experiment. The skin samples used for this study were stored at −20 °C for up to four years. […]
The concentrations of parent compounds were quantified by gas-chromatography tandem mass spectrometry (GC-MS/MS). […] The limits of detections (LODs) for PGEE and PGPE were 0.045 µg/mL and 0.035 µg/mL, respectively, and the limits of quantifications (LOQs) for PGEE and for PGPE were 0.135 µg/mL and 0.105 µg/mL, respectively. […]

[2] = Workplace scenario: estimated internal dose and blood concentration after dermal exposure; parameters: species or system human; conditions: 8 h
Method: The cumulative amount of PGEE and PGPE in the receptor fluid (µg/cm^2, y-axis) was plotted separately over time (hours, x-axis), and the permeability rate (J), the lag time (Tlag), and the permeability coefficient (Kp) were determined from the generated permeability curve. J (µg/cm^2/h) was calculated as the slope of the steepest linear part of the curve (apparent steady state), and Tlag (h) as its x-axis intercept. Kp (cm/h) was calculated by dividing J with the chemical concentration applied to the skin when diluted in water and with the glycol ether’s density when applied neat. The maximal internal dose in the bloodstream was estimated using the permeability rate obtained for the experiments and calculated as follows:IDmean = J [µg/cm^2/h] × SA [cm^2] × t [h] × P,(1) where IDmean is the mean internal dose of PGEE or PGPE after skin exposure, J is the experimental permeability rate, SA represents the surface area exposed to the solvent, t is the time of exposure, and P represents the average percentage of PGEs in commercialized products. We used the J from the aqueous experiments because PGEs are mostly present in water-based products. The surface area exposed was set to 10.4 cm^2 for the hands alone, and 14.2 cm^2 when including the forearms. The total blood volume used for the blood concentration calculation was 5 L [29]. In Switzerland, paint products on the market for both professional and consumer uses contain, on average, 22.3% of PGEE and/or 5.9% of PGPE [17].
Recreating a workplace scenario, the mean internal dose after one workday for a worker in contact with products containing PGEE or PGPE was estimated based on our results. Mixing tasks are common in companies that use paint products, such as those in the construction and car repair industries. This task usually involves opening containers and mixing large quantities of paint. Workers’ hands, and occasionally forearms, are often contaminated by paint splashes and contact with various painting equipment. Based on our in vitro results and assuming dermal exposure only, after one 8 h workday, with a SA of 10.4 cm^2 and PGEs content of either 22.3% or 5.9%, the mean estimated internal dose for a worker performing a paint mixing task without wearing gloves is 8.3 mg of PGEE (see Equation (1)). This corresponds to a blood concentration of 1.7 mg/L. Under the same conditions, if the worker is exposed to products containing PGPE, the mean estimated internal dose after one workday is 0.9 mg, corresponding to a blood concentration of 0.2 mg/L. The addition of water to the mixture, for example, from perspiration or from the water-based product itself, increases the estimated internal dose to 19.9 mg (3.9 mg/L) for PGEE exposure and 4.1 mg (0.8 mg/L) for PGPE exposure. Some paint products may contain both PGEs mixed with other chemical substances; however, mixtures were not considered in this scenario. Further studies are necessary to investigate the effects of chemical mixtures on glycol ether skin permeation. Furthermore, PGEE and PGPE are volatile organic compounds, so workers can be exposed not only through direct skin contact but also via skin vapor absorption through the skin or inhalation. Therefore, the blood concentrations estimated in our workplace scenario would likely be higher under real working conditions involving all routes of absorption. Since no biological reference values are currently available for these compounds, it is not possible to estimate the potential risks associated with exposure at these blood concentrations. However, due to the high skin permeation of these compounds, workers and consumers must wear appropriate protective equipment to limit their exposure.

[3] = parameters: method as in earlier work; conditions: cited from earlier work
[4] = SA 10.4 cm^2, content 22.3% PGEE or 5.9% PGPE, blood volume 5 L, no added water
[5] = SA 10.4 cm^2, content 22.3% PGEE or 5.9% PGPE, dermal only, no added water
[6] = with addition of water to the mixture, SA 10.4 cm^2, 22.3% PGEE or 5.9% PGPE

Row | SMILES | mean cumulative amount in receptor fluid after 24 h: trend with percentage of water [1] | estimated blood concentration [2, 4] [mg/L] | mean estimated internal dose after one workday [2, 5] [mg] | mean estimated internal dose after one workday [2, 6] [mg] | estimated blood concentration ([2]; with addition of water to the mixture, SA 10.4 cm^2, blood volume 5 L) [mg/L] | LogP [3]
1 | CCCOCC(C)O (centres unmarked) [PGPE, propoxypropanol] | reached a maximum when diluted with 25 % water (75:25), followed by a decrease at higher water concentrations | 0.2 | 0.9 | 4.1 | 0.8 | 0.7
2 | CCOCC(C)O (centres unmarked) [PGEE] | increased with the percentage of water in the applied mixture | 1.7 | 8.3 | 19.9 | – | 0.2
